What all share (type): functional, organism-based
Common to all, as to conditions: Aorta

For assay [1], the species on record is Rattus norvegicus. Kind of assay: Vasorelaxation effect against norepinephrine-induced contraction of rat thoracic aortic ring with endothelium at 100 uM.
Assay [2] is filed under the species Rattus norvegicus. Kind of assay: Vasorelaxation effect against norepinephrine-induced contraction of rat thoracic aortic ring without endothelium at 100 uM.
The species named for assay [3] is Rattus norvegicus. Kind of assay: Vasocontractile effect on norepinephrine-induced contraction of rat thoracic aortic ring without endothelium at 100 uM.
The species entered for assay [4] is Rattus norvegicus. Kind of assay: Vasocontractile effect on norepinephrine-induced contraction of rat thoracic aortic ring with endothelium at 100 uM.

Active and inactive are the calls of the source. The calls are words filed in the database; no cut-off is given here. Residues, ends and D or L forms follow the SMILES beside them.

On to `CC(C)C[C@@H]1NC(=O)CNC(=O)[C@@H]2CCCN2C(=O)[C@H](Cc2ccccc2)NC(=O)[C@H](C)NC(=O)[C@H](Cc2ccccc2)NC(=O)[C@H](Cc2c[nH]cn2)NC1=O` (cyclo(AFPGLHF)), for which the outcome in assay [1] and in assay [2] was Active.
For `CC(C)C[C@@H]1NC(=O)CNC(=O)[C@@H]2CCCN2C(=O)[C@H](Cc2ccccc2)NC(=O)[C@H](C)NC(=O)[C@H](Cc2ccccc2)NC(=O)[C@H](CO)NC1=O` (cyclo(AFPGLSF)), the outcome in assay [1] and in assay [2] was Active.
Turning to `CC(C)[C@@H]1NC(=O)CNC(=O)[C@H](C)NC(=O)[C@H](Cc2c[nH]c3ccccc23)NC(=O)[C@H](C)NC1=O` (cyclo(AGVAW)), the outcome in assay [3], in assay [1] and in assay [4] was Active.
On to `CC(C)[C@@H]1NC(=O)CNC(=O)[C@H](C)NC(=O)[C@H](Cc2ccc(O)cc2)NC(=O)[C@H](CCCCN)NC1=O` (cyclo(AGVKY)), for which the outcome in assay [1] and in assay [2] was Active.
On to `CC(C)[C@@H]1NC(=O)[C@@H]2CCCN2C(=O)[C@H](C(C)C)NC(=O)CNC(=O)[C@H](C)NC(=O)[C@H](Cc2c[nH]c3ccccc23)NC1=O` (cyclo(AGVPVW)), for which the outcome in assay [1] and in assay [2] was Active.
In the case of `C[C@@H]1NC(=O)[C@H](CO)NC(=O)[C@H](Cc2ccccc2)NC(=O)[C@@H]2CCCN2C(=O)[C@H](CCCCN)NC(=O)[C@H](CO)NC(=O)[C@H](CO)NC(=O)[C@H](Cc2ccc(O)cc2)NC(=O)[C@H](CO)NC1=O` (cyclo(ASYSSKPFS)), the result in assay [1] and in assay [2] was Active.
With `N=C(N)NCCC[C@@H]1NC(=O)[C@H](Cc2ccc(O)cc2)NC(=O)CNC(=O)[C@H](CO)NC(=O)[C@H](Cc2ccccc2)NC1=O` (cyclo(FSGYR)), the result in assay [1] and in assay [2] was Active.

These data come from ChEMBL document CHEMBL1149334, “Structure of a new cyclic nonapeptide, segetalin F, and vasorelaxant activity of segetalins from Vaccaria segetalis” (Bioorg Med Chem Lett, 2006).
